# Measured values published in US20040198763A1, “Method of treating dry eye with a macrolide compound” (Sucampo AG, priority 2003, published 2004).
# Legend:
# [1] = test system: Human patients diagnosed as having kerratoconjunctivitis sicca (KCS; dry eye); assay: Ocular discomfort score in dry eye patients treated with eye drops; assay type: in vivo; conditions: day 42, patients with Schirmer score <5 mm/5 min and SPK score at least 3
# Experimental: Human patients diagnosed as having kerratoconjunctivitis sicca (KCS; dry eye) were treated with eye drops containing either various concentrations of tacrolimus, a macrolide compound according to the invention or placebo. Eye drops were administered 3 times per day for six weeks (42 days). Patients were evaluated using the Schirmer test; corneal fluorescein staining, conjunctival lissamine green staining and an ocular discomfort score. Patients were also evaluated based on ratings of their ocular discomfort, which was a composite of scores for burning/stinging, irritation, photophobia, dry eye sensation and foreign body sensation. Scoring was on a five-point scale, as follows: [table]
# [2] = test system: Human patients diagnosed as having kerratoconjunctivitis sicca (KCS; dry eye); assay: Conjunctival lissamine green staining in dry eye patients treated with eye drops; assay type: in vivo; conditions: day 42, patients with Schirmer score <5 mm/5 min and SPK score at least 3
# Experimental: Human patients diagnosed as having kerratoconjunctivitis sicca (KCS; dry eye) were treated with eye drops containing either various concentrations of tacrolimus, a macrolide compound according to the invention or placebo. Eye drops were administered 3 times per day for six weeks (42 days). Patients were evaluated using the Schirmer test; corneal fluorescein staining, conjunctival lissamine green staining and an ocular discomfort score. Conjunctival lissamine green staining was performed by instilling a drop of lissamine green ophthalmic solution into the cul-de-sac of the eye. Following instillation, punctate staining was evaluated for the nasal and temporal interpalpebral conjunctiva using the following scoring system: [table]
# [3] = 0.01% eye drops 3 times per day
# [4] = 0.06% eye drops 3 times per day
smiles,measurement,setting,value
C=CCC1/C=C(\C)CC(C)CC(OC)C2OC(O)(C(=O)C(=O)N3CCCCC3C(=O)OC(/C(C)=C/C3CCC(O)C(OC)C3)C(C)C(O)CC1=O)C(C)CC2OC (stereo not shown) [macrolide compound],mean ocular discomfort decrease from baseline,[1]; [3],6.0±4.43 units
same,mean ocular discomfort decrease from baseline,[1]; [4],6.8±3.01 units
same,lissamine green staining decrease from baseline,[2]; [3],1.8±1.47 units
same,lissamine green staining decrease from baseline,[2]; [4],3.9±2.03 units
